According to US20230165872A1, “COMBINATION OF BCMA-DIRECTED T CELL THERAPY AND AN IMMUNOMODULATORY COMPOUND” (Juno Therapeutics, Inc., priority 2020, published 2023):

Legend:
RPMI-8226 target cells [1] = test: Rescue: rechallenge of chronically stimulated anti-BCMA CAR T cells with RPMI-8226 in the presence of compound; assay type: cell-based, human; details: Example 4: Compound A 1 or 10 nM, Compound B 0.1 or 1 nM during re-challenge
Experimental: Anti-BCMA CAR-expressing T cells, produced as described in Example 1, were stimulated with 50 μg BCMA conjugated beads (diameter about 4.5 μm from a 50 μg/ml BCMA-conjugated bead composition) substantially as described in Example 3 to induce chronic stimulation (to produce hypofunctional, exhausted T cells). After the chronic stimulation, the CAR-T cells were rechallenged with RPMI-8226 target cells (labeled with NucLightRed as described in Example 2) at a 1:1 (effector:target) ratio in the presence of (rescued) with Compound A (iberdomide, (S)-3-[4-(4-morpholin-4-ylmethyl-benzyloxy)-1-oxo-1,3-dihydro-isoindol-2-yl]-piperidine-2,6-dione) (1 nM or 10 nM), Compound B ((S)-4-(4-(4-(((2-(2,6-dioxopiperidin-3-yl)-1-oxoisoindolin-4-yl)oxy)methyl)benzyl)piperazin-1-yl)-3-fluorobenzonitrile) (0.1 nM or 1 nM), or DMSO vehicle control.
Killing activity and cytokine production were assessed as described in Example 3.
Studies were undertaken to determine whether Compound A (iberdomide, (S)-3-[4-(4-morpholin-4-ylmethyl-benzyloxy)-1-oxo-1,3-dihydro-isoindol-2-yl]-piperidine-2,6-dione) rescued anti-BCMA CAR T cell function following chronic stimulation. To directly stimulate via CAR engagement to induce chronic stimulation of cells, anti-BCMA CAR T cells were stimulated with BCMA conjugated beads (diameter about 4.5 μm from a 50 μg/ml BCMA-conjugated bead composition, generated as described in Example 9) at a ratio of T cells to beads of 1:1. The cells were then incubated at 37° C., 5% CO2 for 7 days.
Cultures were incubated at 37° C., 5% CO2, and images were taken every 2 hours over 5-7 days with an Essen IncuCyte Zoom live-cell analysis system to track NucLightRed-positive target cells.

RPMI-8226 target cells [2] = test: Acute co-culture cytokine secretion of anti-BCMA CAR T cells with RPMI-8226; assay type: cell-based, human
Experimental: Anti-tumor effects of anti-BCMA CAR T cells, alone and in combination with cell immunomodulatory compounds Compound A (iberdomide, (S)-3-[4-(4-morpholin-4-ylmethyl-benzyloxy)-1-oxo-1,3-dihydro-isoindol-2-yl]-piperidine-2,6-dione) or Compound B ((S)-4-(4-(4-(((2-(2,6-dioxopiperidin-3-yl)-1-oxoisoindolin-4-yl)oxy)methyl)benzyl)piperazin-1-yl)-3-fluorobenzonitrile), were assessed in two different BCMA-expressing target multiple myeloma cell lines RPMI-8226 or OPM-2. Anti-BCMA CAR+ T cells were generated as described in Example 1.
The anti-BCMA CAR-expressing T cells were incubated with target cells, RPMI 8226 (BCMA^med human multiple myeloma cell line) or OPM2 cells (BCMA^med human multiple myeloma cell line) target cells, at an E:T ratio of 1:1. The co-culture incubation with target cells was carried out in the presence of Compound A (0.01 nM, 0.1 nM, 1 nM, 10 nM, 100 nM, 1000 nM, or 10,000 nM) or Compound B (0.01 nM, 0.1 nM, 1 nM, 10 nM, 100 nM, 1000 nM, or 10,000 nM).

anti-BCMA CAR T cells = test: Viability and count of anti-BCMA CAR T cells after 7-day chronic stimulation with BCMA-conjugated beads; assay type: cell-based, human
Experimental: (§1) Cryofrozen anti-BCMA CAR T cells, produced substantially as described in Example 1 and formulated at a 1:1 ratio of CD4+ and CD8^+ T cells, were thawed. To subject cells to chronic stimulation conditions, the anti-BCMA CAR+ T cells were stimulated with 50 μg BCMA conjugated beads (diameter about 4.5 μm from a 50 μg/ml BCMA-conjugated bead composition, generated as described in Example 2) at a ratio of T cells to beads of 1:1 in the presence or absence of Compound A (iberdomide, (S)-3-[4-(4-morpholin-4-ylmethyl-benzyloxy)-1-oxo-1,3-dihydro-isoindol-2-yl]-piperidine-2,6-dione) (1 nM or 10 nM), Compound B ((S)-4-(4-(4-(((2-(2,6-dioxopiperidin-3-yl)-1-oxoisoindolin-4-yl)oxy)methyl)benzyl)piperazin-1-yl)-3-fluorobenzonitrile) (0.1 nM or 1 nM), or DMSO vehicle control. The cells were then incubated at 37° C., 5% CO2 for 7 days.
At day 7, anti-BCMA CAR cells of all the samples were counted using a cellometer machine and stained for flow cytometric analysis. Cells were stained with a viability dye and analyzed by flow cytometry. Viability and count of anti-BCMA CAR T cells was increased in the presence of Compound A or Compound B.
(§2) Cryofrozen anti-BCMA CAR T cells, produced substantially as described in Example 1 and formulated at a 1:1 ratio of CD4+ and CD8+ T cells, were thawed. […] The cells were then incubated at 37° C., 5% CO2 for 7 days.
At day 7, anti-BCMA CAR cells of all the samples were counted using a cellometer machine and stained for flow cytometric analysis. Cells were stained with a viability dye and analyzed by flow cytometry.

Aiolos = test: Intracellular Aiolos expression in BCMA-bead stimulated anti-BCMA CAR T cells (flow cytometry, MFI); assay type: cell-based, human; details: CD4+CAR+ or CD8+CAR+ cells; 24 or 72 hours; lenalidomide 1000 nM, Compound A 1, 10, 100 nM, Compound B 0.1, 1, 10 nM
Experimental: (§3) A BCMA-Fc fusion protein containing the extracellular domain of human BCMA and a human IgG1Fc was conjugated to beads by covalently coupling to the surface of commercially available tosyl-activated magnetic beads having a diameter of approximately […] (M-450 beads, ThermoFisher, Waltham Mass.) (see e.g. International published PCT App. No. WO2019/027850). Following incubation, anti-BCMA CAR-expressing T cells were stained with antibodies and analyzed by flow cytometry to assess intracellular levels of Ikaros and Aiolos in CD4+CAR+ or CD8+CAR+ cells, as measured by median fluorescence intensity (MFI). Median fluorescence intensity (MFI) values for Ikaros and Aiolos were normalized and calculated as a percentage relative to vehicle control.

Ikaros = test: Intracellular Ikaros expression in BCMA-bead stimulated anti-BCMA CAR T cells (flow cytometry, MFI); assay type: cell-based, human
Experimental: as §3

PBMCs = details: cultures of PBMCs; cited from earlier work
RPMI-8226 target cells [3] = test: Rechallenge with RPMI-8226 after concurrent compound treatment during chronic stimulation (cytolysis, cytokines); assay type: cell-based, human
Experimental: as §1
CAR T cells that had been stimulated for 7 days with cultured with 50 μg BCMA-coated magnetic beads concurrently in the presence of the cell immunomodulatory compound were washed free of compound and cells were debeaded. The anti-BCMA CAR T cells that had been stimulated for 7 days with BCMA-conjugated beads in the presence of the compounds were co-cultured with RPMI-8226 target cells (labeled with NucLightRed as described in Example 2) at a 1:1 (effector:target) ratio. Killing activity was monitored over 200 hours by measuring NucLightRed (NLR)-positive target cells. The total cell number of NLR-expressing RPMI targets cells was determined by normalizing cell number over time to the number of cells at the initiation of the co-culture (t=0) for each respective condition.
For cytokine measurements, cell-free supernatants were collected from the cytolytic assay described above 24 hours after plating. Cytokine levels of IFNg, IL-2, and TNFalpha (TNFα) was measured in the supernatant.
as §2
Cytolytic activity was assessed using OPM-2 and RPMI-8226 BCMA expressing target cells transduced with NucLight Red, a red fluorescent protein detectable by microscopy, to allow for measurement of target cell death. Anti-BCMA CAR T cells that had been stimulated for 7 days with BCMA-conjugated beads in the presence of the compounds were co-cultured with RPMI-8226 target cells at a 0.3:1 (effector:target) or 1:1 ratio. Cultures were incubated at 37° C., 5% CO2, and images were taken every 2 hours over 5-7 days with an Essen IncuCyte Zoom live-cell analysis system to track NucLightRed-positive target cells.
For cytokine measurements, cell-free supernatants were collected from the cytolytic assay described above 24 hours after plating. Cytokine levels were measured using IFNg, IL-2, and TNFalpha Meso Scale Discovery cytokine kit (Mesoscale) according to manufacturer instructions. The data was analyzed using GraphPad Prism to calculate absolute changes in cytokine relative to the DMSO vehicle control.

[4] = Example 3: day 7, Compound A 1 or 10 nM, Compound B 0.1 or 1 nM
[5] = Example 7: day 7, lenalidomide 1000 nM, Compound A 0.1, 1 or 10 nM, FIG. 8

SMILES | rescue of chronically activated CAR T cells (RPMI-8226 target cells [1]) | concentration needed for effect on cytokine production, compared with Compound A (RPMI-8226 target cells [2]; acute co-culture) | CAR T cell cytokine production (RPMI-8226 target cells [2]; similar studies, target cell line not stated) | count of anti-BCMA CAR T cells (anti-BCMA CAR T cells; [4]) | viability of anti-BCMA CAR T cells (anti-BCMA CAR T cells; [4]) | intracellular Aiolos expression (MFI, percentage relative to vehicle control) (Aiolos) | intracellular Ikaros expression (MFI, percentage relative to vehicle control) (Ikaros; CD4+CAR+ or CD8+CAR+ cells, 24 or 72 hours, lenalidomide 1000 nM, Compound A 1, 10, 100 nM, Compound B 0.1, 1, 10 nM) | potency in decreasing Ikaros and Aiolos expression, compared with lenalidomide (Ikaros; stimulated anti-BCMA CAR T cells) | activation of T cells (PBMCs) | loss of Aiolos and Ikaros (PBMCs) | production of IL-2 and IFN-γ (PBMCs) | count of anti-BCMA CAR T cells (anti-BCMA CAR T cells; [5]) | viability of anti-BCMA CAR T cells (anti-BCMA CAR T cells; [5]) | cytolytic activity after long-term stimulation in the presence of compound (RPMI-8226 target cells [3]; Example 7: E:T 0.3:1, lenalidomide 1000 nM, Compound A 1 or 10 nM, FIG. 9A) | production of IFN-gamma (RPMI-8226 target cells [3]; Example 7: supernatant at 24 hours, relative to DMSO, FIG. 9B) | production of IL-2 (RPMI-8226 target cells [3]; Example 7: supernatant at 24 hours, relative to DMSO, FIG. 9C) | production of TNF-alpha (RPMI-8226 target cells [3]; Example 7: supernatant at 24 hours, relative to DMSO, FIG. 9D)
N#Cc1ccc(N2CCN(Cc3ccc(COc4cccc5c4CN([C@H]4CCC(=O)NC4=O)C5=O)cc3)CC2)c(F)c1 [Compound B, (S)-4-(4-(4-(((2-(2,6-dioxopiperidin-3-yl)-1-oxoisoindolin-4-yl)oxy)methyl)benzyl)piperazin-1-yl)-3-fluorobenzonitrile] | able to rescue chronically activated CAR T cells to improve functionality | enhanced effects at lower concentrations compared to Compound A | increased | increased | increased | concentration dependent decrease | concentration dependent decrease | more potent than lenalidomide | activation of T cells | induces loss of Aiolos and Ikaros | increased production of IL-2 and IFN-γ |  |  |  |  |  | 
Nc1cccc2c1CN(C1CCC(=O)NC1=O)C2=O (centres unmarked) [lenalidomide, reference compound] |  |  |  |  |  |  |  |  |  |  |  | increased | increased | increased cytolytic activity | increased production | increased production | increased production
